Experimental data from US10774053B2, “HIV protease inhibitors” (Gilead Sciences, Inc., priority 2017, dated 2020).
Read-outs that look alike come from different tables or passages of the source.

Test system: HIV-1 (IIIB) in MT-4 cells
Assay: microbe, parasite or virus in culture
Type: cell-based
Settings: Human immunodeficiency virus 1, IIIB
Description: Compounds were serially diluted (1:3) in DMSO on 384-well polypropylene plates and further diluted 200-fold into complete RPMI media (10% FBS, 1% P/S) using the Biotek Micro Flow and Agilent ECHO acoustic dispenser. Each plate contained up to 8 test compounds, with negative (No Drug Control) and 5 uM AZT positive controls. MT-4 cells were pre-infected with 10 uL of either RPMI (mock-infected) or a fresh 1:250 dilution of an HIV-1 (IIIB) concentrated virus stock. Infected and uninfected MT-4 cells were further diluted in complete RPMI media and added to each plate using a Micro Flow dispenser. After 5 days incubation in a humidified and temperature controlled incubator (37° C.), Cell Titer Glo (Promega) was added to the assay plates to quantify the amount of luciferase.

[1] = MT4, MT-4 cells, HIV-1, read-out: MT4 EC50

Row | Structure (SMILES) | EC50 [1] | EC50 (MT4, read-out: MT4 EC50 (nM))
1 | Cn1ncnc1-c1cc([C@@H](COC(=O)NC(C)(C)C(F)F)N2C(=N)N[C@](CC(C)(C)F)(c3ccc(-c4cnn(C(F)F)c4)cc3)C2=O)ccc1Cl [Compound 128] | 85 nM | –
2 | Cn1ncnc1-c1cc([C@@H](COC(=O)NC(C)(C)C(F)F)N2C(=N)N[C@](CC(C)(C)C(F)(F)F)(c3ccc(-c4cnn(C(F)F)c4)cc3)C2=O)ccc1Cl [Compound 130] | 18.7 nM | –
3 | CC(C)(F)C[C@]1(c2ccc(-c3ncccn3)cc2F)NC(=N)N([C@H](COC(=O)NC(C)(C)C(F)F)c2ccc(Cl)c(-c3ncnn3C(F)F)c2)C1=O [Compound 132] | 48 nM | –
4 | CC(C)(F)C[C@]1(c2ccc(-c3cnn(C4CC4)c3)cc2F)NC(=N)N([C@H](COC(=O)NC(C)(C)C(F)F)c2ccc(Cl)c(-c3ncnn3C(F)F)c2)C1=O [Compound 133] | 35.1 nM | –
5 | CC(C)(C)C[C@]1(c2ccc(-c3cnn(C4CC4)c3)c(F)c2F)NC(=N)N([C@H](COC(=O)NC2(C(F)(F)F)CC2)c2ccc(Cl)c(-c3ncnn3C(F)F)c2)C1=O [Compound 136] | 7.91 nM | –
6 | CC(C)(C)C[C@]1(c2ccc(-c3cn(C4CC4)nn3)cc2)NC(=N)N([C@H](COC(=O)NC2(C(F)(F)F)CC2)c2ccc(Cl)c(-c3ncnn3C(F)F)c2)C1=O [Compound 137] | 19.5 nM | –
7 | CC(C)(C)C[C@]1(c2ccc(-n3cc(F)cn3)cc2)NC(=N)N([C@H](COC(=O)NC2(C(F)(F)F)CC2)c2ccc(Cl)c(-c3ncnn3C(F)F)c2)C1=O [Compound 138] | 11.5 nM | –
8 | CC1(C[C@]2(c3ccc(-c4cnn(C5CC5)c4)cc3)NC(=N)N([C@H](COC(=O)NC3(C(F)(F)F)CC3)c3ccc(Cl)c(-c4ncnn4C(F)F)c3)C2=O)CC1 [Compound 139] | 28.1 nM | –
9 | CC(C)(C)C[C@]1(c2ccc(-c3cnn(C(F)F)c3)cc2)NC(=N)N([C@H](COC(=O)NC2(C(F)(F)F)CC2)c2ccc(C#N)c(-c3ncnn3C(F)F)c2)C1=O [Compound 140] | 266 nM | –
10 | CC(C)(C)C[C@]1(c2ccc(-c3cnn(C(F)F)c3)cc2)NC(=N)N([C@H](COC(=O)NC2(C(F)(F)F)CC2)c2ccc(C(N)=O)c(-c3ncnn3C(F)F)c2)C1=O [Compound 141] | 1020 nM | –
11 | CC(C)(C)C[C@]1(c2ccc(-c3ncn(C4CC4)n3)cc2F)NC(=N)N([C@H](COC(=O)NC2(C(F)(F)F)CC2)c2ccc(Cl)c(-c3ncnn3C(F)F)c2)C1=O [Compound 142] | 10.1 nM | –
12 | CC(C)(C)C[C@]1(c2ccc(-c3cnn(C4CC4)n3)cc2F)NC(=N)N([C@H](COC(=O)NC2(C(F)(F)F)CC2)c2ccc(Cl)c(-c3ncnn3C(F)F)c2)C1=O [Compound 143] | 9.59 nM | –
13 | CC(C)(C)C[C@]1(c2ccc(-c3cnn(C4CC4)c3)c(F)c2)NC(=N)N([C@H](COC(=O)NC2(C(F)(F)F)CC2)c2ccc(Cl)c(-c3ncnn3C(F)F)c2)C1=O [Compound 144] | 7.92 nM | –
14 | CC(C)(Cl)C[C@]1(c2ccc(-c3cnn(C(F)F)c3)cc2)NC(=N)N([C@H](COC(=O)NC2(C(F)(F)F)CC2)c2ccc(Cl)c(-c3ncnn3C(F)F)c2)C1=O [Compound 145] | 228 nM | –
15 | C[C@H](NC(=O)OC[C@H](c1ccc(Cl)c(-c2ncnn2C(F)F)c1)N1C(=N)N[C@](CC(C)(C)C)(c2ccc(-c3cnn(C4CC4)n3)cc2)C1=O)C(F)(F)F [Compound 147] | 7.93 nM | –
16 | C[C@H](NC(=O)OC[C@H](c1ccc(Cl)c(-c2ncnn2C(F)F)c1)N1C(=N)N[C@](CC(C)(C)C)(c2ccc(-c3cn(C45CC(C4)C5)nn3)c(F)c2)C1=O)C(F)(F)F [Compound 148] | 13.8 nM | –
17 | CC(C)(C[C@]1(c2ccc(-c3cnn(C4CC4)n3)cc2)NC(=N)N([C@H](COC(=O)NC2(C(F)(F)F)CC2)c2ccc(Cl)c(-c3ncnn3C(F)F)c2)C1=O)C1CC1 [Compound 149] | 11.9 nM | –
18 | C[C@H](NC(=O)OC[C@H](c1ccc(Cl)c(-c2ncnn2C(F)F)c1)N1C(=N)N[C@](CC(C)(C)C2CC2)(c2ccc(-c3cnn(C4CC4)n3)cc2)C1=O)C(F)(F)F [Compound 150] | 9.92 nM | –
19 | CC(C)(C)C[C@]1(c2ccc(-c3cnn(CC(F)F)n3)cc2F)NC(=N)N([C@H](COC(=O)NC2(C(F)(F)F)CC2)c2ccc(Cl)c(-c3ncnn3C(F)F)c2)C1=O [Compound 151] | 7.55 nM | –
20 | CC(C)(C[C@]1(c2ccc(-c3cnn(C4CC4)n3)cc2)NC(=N)N([C@H](COC(=O)NCC(F)(F)F)c2ccc(Cl)c(-c3ncnn3C(F)F)c2)C1=O)C(F)(F)F [Compound 156] | – | 11.1 nM
21 | CC1(NC(=O)OC[C@H](c2ccc(Cl)c(-c3ncnn3C(F)F)c2)N2C(=N)N[C@](CC(C)(C)C(F)(F)F)(c3ccc(-c4cnn(C5CC5)n4)cc3)C2=O)CC1 [Compound 157] | 7.64 nM | –
22 | CC(C)(C[C@]1(c2ccc(-c3cnn(C4CC4)n3)cc2)NC(=N)N([C@H](COC(=O)NC2(C(F)(F)F)CC2)c2ccc(Cl)c(-c3ncnn3C3CC3)c2)C1=O)C(F)(F)F [Compound 159] | 10.9 nM | –
23 | C[C@H](C(=O)NC[C@H](c1ccc(Cl)c(-c2ncnn2C(F)F)c1)N1C(=N)N[C@](CC(C)(C)C(F)(F)F)(c2ccc(-c3cnn(C4CC4)n3)cc2)C1=O)C(F)(F)F [Compound 161] | 14.3 nM | –

Row | Structure (SMILES) | EC50 [1] | EC50 (MT4, read-out: MT4 EC50 (nM))
24 | C[C@@H](C(=O)NC[C@H](c1ccc(Cl)c(-c2ncnn2C(F)F)c1)N1C(=N)N[C@](CC(C)(C)C(F)(F)F)(c2ccc(-c3cnn(C4CC4)n3)cc2)C1=O)C(F)(F)F [Compound 162] | 21 nM | –
25 | CC(C)(C)C[C@]1(c2ccc(-c3cnn(C(F)F)c3)cc2)NC(=N)N([C@H](COC(=O)NC2(C)CC2)c2ccc(Cl)c(-n3ncnc3C(F)F)c2)C1=O [Compound 178] | 9.99 nM | –
26 | CC(C)(C)C[C@]1(c2ccc(-c3cnn(C(F)F)c3)cc2)NC(=N)N([C@H](COC(=O)Nc2ccccc2)c2ccc(Cl)c(-n3ncnc3C(F)F)c2)C1=O [Compound 180] | – | 23.7 nM
27 | CC(C)(C)C[C@]1(c2ccc(-c3cnn(C(F)F)c3)cc2)NC(=N)N([C@H](COC(=O)Nc2ccccn2)c2ccc(Cl)c(-n3ncnc3C(F)F)c2)C1=O [Compound 181] | 29 nM | –
28 | CC(C)(C)C[C@]1(c2ccc(-c3cnn(C(F)F)c3)cc2)NC(=N)N([C@H](COC(=O)NC(C)(C)C)c2ccc(Cl)c(-n3ncnc3C(F)F)c2)C1=O [Compound 183] | 12 nM | –
29 | CC(C)(C)C[C@]1(c2ccc(-c3cnn(C(F)F)c3)cc2)NC(=N)N([C@H](COC(=O)N2CC(F)(F)C2)c2ccc(Cl)c(-n3ncnc3C(F)F)c2)C1=O [Compound 184] | 9.93 nM | –
30 | CC(C)(C)C[C@]1(c2ccc(-c3cnn(C(F)F)c3)cc2)NC(=N)N([C@H](CO)c2ccc(Cl)c(-n3ncnc3C(F)F)c2)C1=O [Compound 186] | 80.2 nM | –
31 | CC(C)(C)C[C@]1(c2ccc(-c3ncccn3)cc2)NC(=N)N([C@H](COC(=O)NC2(C(F)(F)F)CC2)c2ccc(Cl)c(-n3ncnc3C(F)F)c2)C1=O [Compound 187] | 11.6 nM | –
32 | CC(C)(C)C[C@]1(c2ccc(-c3ncccn3)cc2)NC(=N)N([C@H](COC(=O)NC(C)(C)C(F)F)c2ccc(Cl)c(-n3ncnc3C(F)F)c2)C1=O [Compound 188] | 9.9 nM | –
33 | CC(C)(C)C[C@]1(c2ccc(-c3ncccn3)cc2)NC(=N)N([C@H](COC(=O)NC(C)(C)C(F)(F)F)c2ccc(Cl)c(-n3ncnc3C(F)F)c2)C1=O [Compound 189] | 9.12 nM | –
34 | CC(C)(C)C[C@]1(c2ccc(-c3ccccn3)cc2)NC(=N)N([C@H](COC(=O)NC2(C(F)(F)F)CC2)c2ccc(Cl)c(-n3ncnc3C(F)F)c2)C1=O [Compound 190] | 22.6 nM | –
35 | CC(C)(C)C[C@]1(c2ccc(-c3ccccn3)cc2)NC(=N)N([C@H](COC(=O)NC(C)(C)C)c2ccc(Cl)c(-n3ncnc3C(F)F)c2)C1=O [Compound 191] | 9.69 nM | –
36 | CC(C)(C)C[C@]1(c2ccc(-c3cnn(C(F)F)c3)cc2)NC(=N)N([C@H](COC(=O)NC2(C(F)(F)F)CC2)c2cc(F)c(Cl)c(-n3ncnc3C(F)F)c2)C1=O [Compound 192] | 61.9 nM | –
37 | CC(C)(C)C[C@]1(c2ccc(-c3ccccn3)cc2)NC(=N)N([C@H](COC(=O)NC2(C(F)(F)F)CC2)c2cc(F)c(Cl)c(-n3ncnc3C(F)F)c2)C1=O [Compound 193] | 88.3 nM | –
38 | CC(C)(C)C[C@]1(c2ccc(-c3ccccn3)cc2F)NC(=N)N([C@H](COC(=O)NC2(C(F)(F)F)CC2)c2ccc(Cl)c(-n3ncnc3C(F)F)c2)C1=O [Compound 196] | 12.7 nM | –
39 | CC(C)(C)C[C@]1(c2ccc(-c3ncccn3)cc2F)NC(=N)N([C@H](COC(=O)NC2(C(F)(F)F)CC2)c2ccc(Cl)c(-n3ncnc3C(F)F)c2)C1=O [Compound 197] | 11.2 nM | –
40 | CC(C)(C)C[C@]1(c2ccc(-c3ncccn3)cc2F)NC(=N)N([C@H](COC(=O)NC(C)(C)C(F)(F)F)c2ccc(Cl)c(-n3ncnc3C(F)F)c2)C1=O [Compound 198] | 11.5 nM | –
41 | CC(C)(C)C[C@]1(c2ccc(-c3cncs3)cc2F)NC(=N)N([C@H](COC(=O)NC2(C(F)(F)F)CC2)c2ccc(Cl)c(-n3ncnc3C(F)F)c2)C1=O [Compound 199] | 7.6 nM | –
42 | Cc1ncsc1-c1ccc([C@@]2(CC(C)(C)C)NC(=N)N([C@H](COC(=O)NC3(C(F)(F)F)CC3)c3ccc(Cl)c(-n4ncnc4C(F)F)c3)C2=O)c(F)c1 [Compound 200] | 26.2 nM | –
43 | Cn1nccc1-c1ccc([C@@]2(CC(C)(C)C)NC(=N)N([C@H](COC(=O)NC3(C(F)(F)F)CC3)c3ccc(Cl)c(-n4ncnc4C(F)F)c3)C2=O)cc1 [Compound 205] | 20.2 nM | –
44 | Cn1ccc(-c2ccc([C@@]3(CC(C)(C)C)NC(=N)N([C@H](COC(=O)NC4(C(F)(F)F)CC4)c4ccc(Cl)c(-n5ncnc5C(F)F)c4)C3=O)cc2)n1 [Compound 206] | 6.74 nM | –
45 | CC(C)(C)C[C@]1(c2ccc(-c3cnn(C4CC4)c3)cc2)NC(=N)N([C@H](COC(=O)NC2(C(F)(F)F)CC2)c2ccc(Cl)c(-n3ncnc3C(F)F)c2)C1=O [Compound 207] | 13.9 nM | –
